Measurements published in ChEMBL document CHEMBL3751678, “Stabilizing G-quadruplex DNA by methylazacalix[n]pyridine through shape-complementary interaction” (Bioorg Med Chem Lett, 2016).

Assays:
Homo sapiens [1] = organism: Homo sapiens; test: Stabilization of human T12 G-quadruplex DNA assessed as change in melting temparature by circular dichroism analysis
[2] = Stabilization of TBA G-quadruplex DNA (unknown origin) assessed as change in melting temparature by circular dichroism analysis
[3] = Stabilization of Bcl2 G-quadruplex DNA (unknown origin) assessed as change in melting temparature by circular dichroism analysis
Homo sapiens [4] = organism: Homo sapiens; test: Stabilization of human H12 G-quadruplex DNA assessed as change in melting temparature by circular dichroism analysis
[5] = Stabilization of c-kit G-quadruplex DNA (unknown origin) assessed as change in melting temparature by circular dichroism analysis

**Q.** For `CN1c2cccc(n2)N(C)c2cccc(n2)N(C)c2cccc(n2)N(C)c2cccc(n2)N(C)c2cccc(n2)N(C)c2cccc(n2)N(C)c2cccc(n2)N(C)c2cccc1n2`, which ΔTm (Homo sapiens [1]) is on record?
**A.** The ΔTm was 0 °C.

**Q.** And the ΔTm [2]?
**A.** The ΔTm was 0 °C.

**Q.** And the ΔTm [3]?
**A.** The ΔTm was 0 °C.

**Q.** What about the ΔTm (Homo sapiens [4]) of the same molecule?
**A.** Its ΔTm is 0 °C.

**Q.** And the ΔTm [5]?
**A.** Its ΔTm is 0 °C.

**Q.** With `Cn1c2cccc(n2)n(C)c2cccc(n2)n(C)c2cccc(n2)n(C)c2cccc(n2)n(C)c2cccc(n2)n(C)c2cccc1n2` as the molecule, how does the ΔTm (Homo sapiens [1]) read?
**A.** Its ΔTm is 4 °C.

**Q.** What about the ΔTm [2] of the same molecule?
**A.** Its ΔTm is 0 °C.

**Q.** What about the ΔTm [3] of the same molecule?
**A.** The ΔTm was 0 °C.

**Q.** What about the ΔTm (Homo sapiens [4]) of the same molecule?
**A.** The ΔTm was 7 °C.

**Q.** What about the ΔTm [5] of the same molecule?
**A.** The ΔTm was 0 °C.

**Q.** For `CN1c2cccc(n2)N(C)c2cccc(n2)N(C)c2cccc(n2)N(C)c2cccc1n2`, which ΔTm (Homo sapiens [1]) is on record?
**A.** Its ΔTm is 0 °C.

**Q.** And the ΔTm [2]?
**A.** The ΔTm was 0 °C.

**Q.** What about the ΔTm [3] of the same molecule?
**A.** Its ΔTm is 0 °C.

**Q.** What about the ΔTm (Homo sapiens [4]) of the same molecule?
**A.** The ΔTm was 0 °C.

**Q.** And the ΔTm [5]?
**A.** Its ΔTm is 0 °C.

**Q.** For `CN1c2cccc(n2)N(C)c2cccc(n2)N(C)c2cccc(n2)N(C)c2cccc(n2)N(C)c2cccc(n2)N(C)c2cccc(n2)N(C)c2cccc1n2`, which ΔTm (Homo sapiens [1]) is on record?
**A.** The ΔTm was 0 °C.

**Q.** And the ΔTm [2]?
**A.** The ΔTm was 0 °C.

**Q.** And the ΔTm [3]?
**A.** The ΔTm was 0 °C.

**Q.** What about the ΔTm (Homo sapiens [4]) of the same molecule?
**A.** Its ΔTm is 0 °C.

**Q.** And the ΔTm [5]?
**A.** Its ΔTm is 0 °C.

**Q.** Which ΔTm (Homo sapiens [1]) does the source give for `CN1c2cccc(n2)N(C)c2cccc(n2)N(C)c2cccc(n2)N(C)c2cccc(n2)N(C)c2cccc(n2)N(C)c2cccc(n2)N(C)c2cccc(n2)N(C)c2cccc(n2)N(C)c2cccc1n2` here?
**A.** Its ΔTm is 0 °C.

**Q.** What about the ΔTm [2] of the same molecule?
**A.** The ΔTm was 0 °C.

**Q.** And the ΔTm [3]?
**A.** The ΔTm was 0 °C.

**Q.** And the ΔTm (Homo sapiens [4])?
**A.** The ΔTm was 0 °C.

**Q.** And the ΔTm [5]?
**A.** The ΔTm was 0 °C.
